The source of these data is paper PMC4519256, “Expanding the Described Metabolome of the Marine Cyanobacterium Moorea producens JHB through Orthogonal Natural Products Workflows” (PLoS ONE, 2015).

Structures are written as SMILES.

One assay has as its system actin. Details: method as in PMID 12088429. Conditions: cited from earlier work.
In assay [1] the test system is human carcinoma of the nasopharynx (KB) cell line. Also noted: method as in PMID 15974628. Conditions: cited from earlier work.
Assay [2] concerns human small cell lung cancer (NCI-H187) cell line. Also noted: method as in PMID 15974628. Conditions: cited from earlier work.
Assay [3] relates to voltage-gated sodium channels. As to the kind of experiment: Antagonism of veratridine-stimulated Na+ influx in neocortical neurons (SBFI). The format is cell-based, Swiss-Webster mice. The settings on record: for IC50: primary mouse neocortical neurons, three-parameter logistic fit. Here is the method:
(§1) Primary cultures of neocortical neurons were obtained from embryonic day 16 Swiss-Webster mice as described elsewhere. Briefly, pregnant mice were euthanized by CO2 asphyxiation and embryos were removed under sterile conditions. Neocortices were collected, stripped of meninges, minced by trituration with a Pasteur pipette, and treated with trypsin for 25 min at 37°C. The cells were then dissociated by two successive trituration and sedimentation steps in soybean trypsin inhibitor and DNase containing isolation buffer, centrifuged, and resuspended in Eagle’s minimal essential medium with Earle’s salt (MEM) and supplemented with 1 mM L-glutamine, 10% fetal bovine serum, 10% horse serum, 100 IU/mL penicillin, and 0.10 mg/mL streptomycin (pH 7.4). Cells were plated onto poly-L-lysine-coated 96-well (9 mm), clear-bottomed, black-well culture plates (MidSci, St. Louis, USA) at a density of 1.5 × 10^5 cells/well. Cells were then incubated at 37°C in a 5% CO2 and 95% humidity atmosphere. The culture media was changed every other day, starting from day 5 in-vitro using a serum-free growth medium containing Neurobasal Medium supplemented with B-27, 100 IU/mL penicillin, 0.10 mg/mL streptomycin, and 0.2 mM L-glutamine. Neocortical cultures were used in experiments between 10–11 days in-vitro. All animal use protocols were approved by the Institutional Animal Care and Use Committee (IACUC) of Creighton University.
[Na^+]i measurement and full in-situ calibration of sodium-binding benzofuran isophthalate (SBFI) fluorescence ratio were performed as described previously. Cells grown in 96-well plates were washed four times with Locke's buffer using an automated microplate washer (BioTek Instruments, Winooski, VT). After measuring the background fluorescence of each well, cells were incubated for 1 h at 37°C with dye-loading buffer (100 μL/well) containing 10 μM SBFI-AM (Invitrogen) and 0.02% Pluronic F-127 (Invitrogen). Cells were washed five times with Locke's buffer, leaving a final volume of 150 μL in each well. Jamaicamide addition and preincubation was as described above for Ca^2+ concentration determination. […] Fluorescence readings were taken once every 5 s for 60 s to establish the baseline, then either vehicle (control) or veratridine was added and fluorescence was monitored for an additional 260 s. After correcting for background fluorescence, SBFI fluorescence ratios (340/380) and concentration-response graphs were generated.
(§2) The Fluo-3 and SBFI raw fluorescence emission data were exported to an Excel work sheet. The Fluo-3 fluorescence or SBFI fluorescence ratios (340/380) versus time were analyzed and concentration-response graphs generated using GraphPad Prism software (GraphPad Software Inc., San Diego, CA).

A further assay relates to sodium channel. Conditions: at a concentration of 5 μM, Neuro-2a cells; cited from earlier work.
The test system of assay [4] is veratridine-stimulated Ca2+ influx in neocortical neurons. Briefly: Antagonism of veratridine-stimulated Ca2+ influx in neocortical neurons (fluo-3). The format is cell-based, Swiss-Webster mice. The settings on record: for IC50: Neuron, primary mouse neocortical neurons, three-parameter logistic fit. As to the method:
as §1
Cells grown in 96-well plates were used for determination of intracellular Ca^2+ concentration ([Ca^2+]i). Briefly, the growth medium was removed and replaced with dye-loading medium (100 μL per well) containing 4 μM fluo-3 AM and 0.04% pluronic acid in Locke's buffer. […] The cells were incubated in the presence or absence of jamaicamides for 5–7 minutes at 37°C in a 5% CO2 and 95% humidity atmosphere prior to transfer to a FLEX Station II (Molecular Devices) benchtop scanning fluorescence chamber. The fluorescence measurements were performed at 37°C. The cells were excited at 488 nm and Ca^2+-bound fluo-3 emission was recorded at 538 nm at 2 s intervals. After recording baseline fluorescence for 60 s, either vehicle or veratridine was added to each well at a rate of 26 μL/s; the fluorescence was then monitored for an additional 200 s.
as §2

As to `CC(=O)O[C@@H]1c2nc(cs2)C(=O)O[C@@H](CCCC(C)(Cl)Cl)[C@H](C)C(=O)O[C@@H](C(C)(C)O)c2nc(cs2)C(=O)OC1(C)C` [compound 1, hectochlorin], in the assay with actin, the “Effect on actin polymerization” value is “enhances actin polymerization”. In addition, the results for the LD50 in assay [1] and in assay [2] were 0.86 µM and 1.20 µM, respectively.
As usually defined, the IC50 is the midpoint of a concentration-inhibition curve. Take `C#CCCC/C(=C\Cl)CCC(C)/C=C/CCC(=O)NCC/C(=C\C(=O)N1C(=O)C=C[C@@H]1C)OC` (stereo partly drawn) [compound 3, jamaicamide B]: the IC50 in assay [3] was 3.6 µM; in assay [4], 6.88 µM. The “Sodium channel blocking activity” value with sodium channel is on record as “sodium channel blocking activity”.
With `COC(=CC(=O)N1C(=O)C=CC1C)CCNC(=O)CCC=CC(C)CCC(=CCl)CCCC#CI` (stereo not drawn) [compound 12, jamaicamide F], the values for the IC50 in assay [3] and in assay [4] were 2.3 µM and 4.3 µM, respectively.
Take `CO/C(=C/C(=O)N1C(=O)C=C[C@@H]1C)CCNC(=O)CC/C=C/C(C)CC/C(=C/Cl)CCCC#CBr` (stereo partly drawn) [compound 2, jamaicamide A]: the IC50 in assay [3] amounted to 1.1 µM; in assay [4], 1.82 µM. In assay [3] (versus 3 and 12, neocortical neurons), the “Potency relative to the other two jamaicamides as a sodium channel blocker (Na+ influx)” value is reported as 2-3 times. For the same compound, the “Sodium channel blocking activity” value in the assay on sodium channel is listed as “sodium channel blocking activity”. Moreover, in assay [4] (versus 3 and 12), the “Potency relative to the other two jamaicamides tested (Ca2+ influx)” value was 2–3 times.
Consider `CC1C(=O)OC(C(C)(C)O)c2nc(cs2)C(=O)OC(C)(C)C(O)c2nc(cs2)C(=O)OC1CCCC(C)(Cl)Cl` (stereo not drawn) [compound 5, Hectochlorin B], for which the LD50 in assay [1] is 0.31 µM; in assay [2], 0.32 µM.
